Experimental data: patent US20260200928A1, “THERAPEUTIC COMPOUNDS” (Sanofi, priority 2022, published 2026)
pIC50: −log10 of the molar value.

These compounds were tested against T1, human IL-17A (Homo sapiens, UniProt Q16552) (assay: IL-17A AlphaLISA competition assay (block of IL-17A binding to its receptor IL-17RA)). Settings: mean IC50 (n≥2), block of IL-17A binding to IL-17RA.
T1 construct: purchased R&D Systems 7955-IL/CF
T1 sequence (Q16552 24-155): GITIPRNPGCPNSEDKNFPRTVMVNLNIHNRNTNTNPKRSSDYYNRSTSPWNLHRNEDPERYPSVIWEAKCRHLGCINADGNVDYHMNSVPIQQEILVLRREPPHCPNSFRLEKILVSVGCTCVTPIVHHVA
In short: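 Human recombinant IL-17A (7.5 nM stock) pre-incubated 30 min at RT with compound, then IL-17RA/Fc (5 nM stock) added for 90 min; AlphaLISA read with anti-Fc acceptor beads, biotinylated anti-IL-17A antibody (5 nM) and streptavidin donor beads (3 h, dark). IC50 from 4-parameter logistic fit, normalised to DMSO and 4 μM reference inhibitor; n≥2.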
Work on `CC(C)(C)OC(=O)NCC1(c2nocc2C(=O)N[C@H](C(=O)Nc2cc(CN3C[C@@H](C(F)(F)F)NC3=O)ccn2)C2CCC(F)(F)CC2)CC1` [Example 19, Tert-butyl ((1-(4-(((S)-1-(4,4-difluorocyclohexyl)-2-oxo-2-((4-(((S)-2-oxo-4-(trifluoromethyl)imidazolidin-1-yl)methyl)pyridin-2-yl)amino)ethyl)-carbamoyl)isoxazol-3-yl)cyclopropyl)methyl)carbamate] yielded a pIC50 of 6.07. With `CCn1nccc1C(=O)N[C@H](C(=O)Nc1cc(C(C2CC2)N2C[C@@H](C(F)(F)F)NC2=O)ccn1)C1CCC(F)(F)CC1` (single isomer, unassigned) [Example 165, N-((1S)-2-((4-((R or S)-cyclopropyl((S)-2-oxo-4-(trifluoromethyl)imidazolidin-1-yl)methyl)pyridin-2-yl)amino)-1-(4,4-difluorocyclohexyl)-2-oxoethyl)-1-ethyl-1H-pyrazole-5-carboxamide] the pIC50 was 7.39. `CN1C[C@H]2[C@@H]([C@H]1C(=O)N[C@H](C(=O)Nc1cc(C(NC(=O)CCC(F)(F)F)C3CC3)ccn1)C(C1CC1)C1CC1)C2(C)C` (single isomer, unassigned) [Example 56] showed a pIC50 of 5.13. `CCn1nccc1C(=O)N[C@@H](COC(C)(C)C(F)(F)F)C(=O)Nc1cc([C@@H](COC)N2C[C@@H](C(F)(F)F)NC2=O)ccn1` [Example 270, 1-ethyl-N-((S)-1-((4-((S)-2-methoxy-1-((S)-2-oxo-4-(trifluoromethyl)imidazolidin-1-yl)ethyl)pyridin-2-yl)amino)-1-oxo-3-((1,1,1-trifluoro-2-methylpropan-2-yl)oxy)propan-2-yl)-1H-pyrazole-5-carboxamide] showed a pIC50 of 7.54. In the case of `COCC(c1ccnc(NC(=O)C(NC(=O)C(F)(F)c2cc(F)cc(F)c2)C2CCC(C)CC2)c1)N1CC(C(F)(F)F)NC1=O` (single isomer, unassigned) [Example 250], the pIC50 was 7.42. `COC[C@H](c1ccnc(NC(=O)[C@@H](NC(=O)C(F)(F)c2cccc(C#N)c2)[C@H]2CC[C@H](C)CC2)c1)N1C[C@@H](C(F)(F)F)NC1=O` (relative stereo) [Example 247, 2-(3-Cyanophenyl)-2,2-difluoro-N—((S)-2-((4-((S)-2-methoxy-1-((S)-2-oxo-4-(trifluoromethyl)imidazolidin-1-yl)ethyl)pyridin-2-yl)amino)-1-((1r,4S)-4-methylcyclohexyl)-2-oxoethyl)acetamide] showed a pIC50 of 7.24. `Cc1nonc1C(=O)N[C@H](C(=O)Nc1cc(CN2C[C@@H](C(F)(F)F)NC2=O)ccn1)C(C1CC1)C1CC1` [Example 18, N-((S)-1,1-dicyclopropyl-3-oxo-3-((4-(((S)-2-oxo-4-(trifluoromethyl)imidazolidin-1-yl)methyl)pyridin-2-yl)amino)propan-2-yl)-4-methyl-1,2,5-oxadiazole-3-carboxamide] showed a pIC50 of 6.35. `CN1C(=O)N(Cc2ccnc(NC(=O)[C@@H](NC(=O)OC(C)(C)C)[C@H]3CC[C@H](C)CC3)c2)CC12CCC2` [Example 23, Tert-butyl ((S)-2-((4-((5-methyl-6-oxo-5,7-diazaspiro[3.4]octan-7-yl)methyl)pyridin-2-yl)amino)-1-((1r,4S)-4-methylcyclohexyl)-2-oxoethyl)carbamate] showed a pIC50 of 5.16. `CCn1nccc1C(=O)NC(C(=O)Nc1cc(Cc2cccc(=O)n2C)ccn1)C1CCC(F)(F)CC1` (stereo not shown) [Example 36, N-(1-(4,4-difluorocyclohexyl)-2-((4-((1-methyl-6-oxo-1,6-dihydro-pyridin-2-yl)methyl)pyridin-2-yl)amino)-2-oxoethyl)-1-ethyl-1H-pyrazole-5-carboxamide] was tested, and the pIC50 was 4.92. `O=C(CCC(F)(F)F)NC(c1ccnc(NC(=O)[C@@H](NC(=O)c2cocn2)C2CCC(F)(F)CC2)c1)C1CC1` (stereo partly drawn) [Example 109, N-((1S)-2-((4-(cyclopropyl(4,4,4-trifluorobutanamido)methyl)pyridin-2-yl)amino)-1-(4,4-difluorocyclohexyl)-2-oxoethyl)oxazole-4-carboxamide] was tested, and the pIC50 was 5.11. Compound `CC(C)(C)OC(=O)N[C@H](C(=O)Nc1cc(C(NC(=O)CCC(F)(F)F)C2CC2)ccn1)C1CCC(F)(F)CC1` (single isomer, unassigned) [Example 74] has a pIC50 of 5.58. `C[C@@H]1CNC(=O)N1Cc1ccnc(NC(=O)[C@@H](NC(=O)OC(C)(C)C)[C@H]2CC[C@H](C)CC2)c1` [Example 29, Tert-butyl ((S)-2-((4-(((R)-5-methyl-2-oxoimidazolidin-1-yl)methyl)pyridin-2-yl)amino)-1-((1r,4S)-4-methylcyclohexyl)-2-oxoethyl)carbamate] showed a pIC50 of 6.37. `COC[C@H](c1ccnc(NC(=O)[C@@H](NC(=O)c2nocc2C2CCC2)C2CCC(F)(F)CC2)c1)N1C[C@@H](C(F)(F)F)NC1=O` [Example 191, 4-cyclobutyl-N-((S)-1-(4,4-difluorocyclohexyl)-2-((4-((S)-2-methoxy-1-((S)-2-oxo-4-(trifluoromethyl)imidazolidin-1-yl)ethyl)pyridin-2-yl)amino)-2-oxoethyl)isoxazole-3-carboxamide] showed a pIC50 of 7.51. `O=C(CCC(F)(F)F)NC(c1ccnc(NC(=O)[C@@H](NC(=O)c2nonc2C2CC2)C(C2CC2)C2CC2)c1)C1CC1` (single isomer, unassigned) [Example 40] showed a pIC50 of 7.04. `Cn1nccc1C(=O)N[C@H](C(=O)Nc1cc(C[C@H]2C[C@@H](C(F)(F)F)NC2=O)ccn1)C1CCC(F)(F)CC1` [Example 224, N-((S)-1-(4,4-difluorocyclohexyl)-2-oxo-2-((4-(((3S,5S)-2-oxo-5-(trifluoromethyl)pyrrolidin-3-yl)methyl)pyridin-2-yl)amino)ethyl)-1-methyl-1H-pyrazole-5-carboxamide] gave a pIC50 of 6.87. Compound `[2H]C(c1ccnc(NC(=O)[C@@H](NC(=O)OC(C)(C)C)[C@H]2CC[C@H](C)CC2)c1)N1C[C@@H](C(F)(F)F)NC1=O` (stereo partly drawn) [Example 151, Tert-butyl ((1S)-1-((1r,4S)-4-methylcyclohexyl)-2-oxo-2-((4-(((S)-2-oxo-4-(trifluoromethyl)-imidazolidin-1-yl)methyl-d)pyridin-2-yl)amino)ethyl)carbamate] has a pIC50 of 6.40. With `Cc1nonc1C(=O)N[C@H](C(=O)Nc1cc(C(C2CC2)N2C[C@@H](C(F)(F)F)NC2=O)ccn1)C1CCC(F)(F)CC1` (single isomer, unassigned) [Example 164, N-((1S)-2-((4-((R or S)-cyclopropyl((S)-2-oxo-4-(trifluoromethyl)imidazolidin-1-yl)methyl)pyridin-2-yl)amino)-1-(4,4-difluorocyclohexyl)-2-oxoethyl)-4-methyl-1,2,5-oxadiazole-3-carboxamide] the pIC50 was 7.46. `COC[C@H](c1ccnc(NC(=O)[C@@H](NC(=O)c2conc2C)C2CCC(F)(F)CC2)c1)N1C[C@@H](C(F)(F)F)NC1=O` [Example 194, N-((S)-1-(4,4-difluorocyclohexyl)-2-((4-((S)-2-methoxy-1-((S)-2-oxo-4-(trifluoromethyl)imidazolidin-1-yl)ethyl)pyridin-2-yl)amino)-2-oxoethyl)-3-methylisoxazole-4-carboxamide] showed a pIC50 of 7.17. Compound `CC(C)n1nccc1C(=O)N[C@H](C(=O)Nc1cc(O[C@H]2C[C@@H](C(F)(F)F)NC2=O)ccn1)[C@H]1CC[C@H](C)CC1` [Example 320, 1-isopropyl-N—((S)-1-((1r,4S)-4-methylcyclohexyl)-2-oxo-2-((4-(((3S,5S)-2-oxo-5-(trifluoromethyl)pyrrolidin-3-yl)oxy)pyridin-2-yl)amino)ethyl)-1H-pyrazole-5-carboxamide] has a pIC50 of 6.22. Compound `CC(C)n1nccc1C(=O)N[C@H](C(=O)Nc1cc(O[C@@H]2C[C@@H](C(F)(F)F)NC2=O)ccn1)[C@H]1CC[C@H](C)CC1` [Example 323, 1-isopropyl-N—((S)-1-((1r,4S)-4-methylcyclohexyl)-2-oxo-2-((4-(((3R,5S)-2-oxo-5-(trifluoromethyl)pyrrolidin-3-yl)oxy)pyridin-2-yl)amino)ethyl)-1H-pyrazole-5-carboxamide] has a pIC50 of 5.92. “4-Cyclopropyl-N—((S)-1-((1r,4S)-4-methylcyclohexyl)-2-oxo-2-((5-(((S)-2-oxo-4-(trifluoromethyl)imidazolidin-1-yl)methyl)pyridin-3-yl)amino)ethyl)-1,2,5-oxadiazole-3-carboxamide and 4-Cyclopropyl-N—((R)-1-((1r,4R)-4-methylcyclo-hexyl)-2-oxo-2-((5-(((S)-2-oxo-4-(trifluoromethyl)imidazolidin-1-yl)methyl)pyridin-3-yl)amino)ethyl)-1,2,5-oxadiazole-3-carboxamide [Example 84]” was tested, and the pIC50 was 6.43. `COCC(c1ccnc(NC(=O)[C@@H](NC(=O)c2nonc2C)[C@H]2CC[C@H](C)CC2)c1)N1C[C@@H](C(F)(F)F)NC1=O` (single isomer, unassigned) [Example 86] was tested, and the pIC50 was 8.22. For `CC1CCC(C(NC(=O)c2nonc2C2CC2)C(=O)Nc2cc(C(C)N3CC(C(F)(F)F)NC3=O)ccn2)CC1` [Example 238, 4-cyclopropyl-N-((S)-1-((1r,4S)-4-methylcyclohexyl)-2-oxo-2-((4-((R)-1-((S)-2-oxo-4-(trifluoromethyl)imidazolidin-1-yl)ethyl)pyridin-2-yl)amino)ethyl)-1,2,5-oxadiazole-3-carboxamide], the pIC50 was 7.85. Compound `CC(C)n1nccc1C(=O)N[C@H](C(=O)Nc1cc(CN2C[C@@H](C(F)(F)F)NC2=O)ccn1)[C@@H](C)OC(C)(C)C` [Example 127, N-((2S,3R)-3-(tert-butoxy)-1-oxo-1-((4-(((S)-2-oxo-4-(trifluoromethyl)-imidazolidin-1-yl)methyl)-pyridin-2-yl)amino)butan-2-yl)-1-isopropyl-1H-pyrazole-5-carboxamide] has a pIC50 of 6.36. Compound `CCc1nocc1C(=O)NC(C(=O)Nc1cc([C@@H](COC)N2C[C@@H](C(F)(F)F)NC2=O)ccn1)C1CCC(F)CC1` (single isomer, unassigned) [Example 286] has a pIC50 of 7.40.
